According to ChEMBL document CHEMBL1123491, “N6-substituted N-alkyladenosine-5'-uronamides: bifunctional ligands having recognition groups for A1 and A2 adenosine receptors” (J Med Chem, 1986):

What was measured:
Adenosine receptor A1 [1] = target: T1, Adenosine receptor A1 (Rattus norvegicus, UniProt P25099); test: Potency against rat brain adenosine A1 receptor
T1 sequence (P25099 whole entry): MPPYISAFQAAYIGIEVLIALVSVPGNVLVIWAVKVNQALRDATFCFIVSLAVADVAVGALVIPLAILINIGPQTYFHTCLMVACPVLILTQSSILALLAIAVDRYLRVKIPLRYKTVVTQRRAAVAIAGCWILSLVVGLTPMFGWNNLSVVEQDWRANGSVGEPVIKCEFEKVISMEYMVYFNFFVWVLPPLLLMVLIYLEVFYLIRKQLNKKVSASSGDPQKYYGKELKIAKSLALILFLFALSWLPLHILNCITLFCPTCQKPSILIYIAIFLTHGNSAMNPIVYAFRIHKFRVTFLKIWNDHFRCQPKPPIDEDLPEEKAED

Adenosine A2 receptor [2] = target: Adenosine A2 receptor (Rattus norvegicus, UniProt P29276+P30543); test: Potency against PC12 cell A2 adenosine receptor by adenylate cyclase activation; format: cell-based; conditions: pc-12
Adenosine receptor A1 [3] = target: T1, Adenosine receptor A1; test: Potency against rat brain A1 adenosine receptor
Adenosine A2 receptor [4] = target: Adenosine A2 receptor (Homo sapiens, UniProt P29275+P29274); test: Potency against human platelet A2 adenosine receptor
[5] = target: T2, Adenosine receptor A1 (Rattus norvegicus) (UniProt P25099); test: Potency against rat brain adenosine A1 receptor at 10 uM
T2 sequence (whole entry): T1 sequence (P25099 whole entry)

| Structure (SMILES) | IC50 (Adenosine receptor A1 [1]) [µM] | EC50 (Adenosine A2 receptor [2]) [µM] | IC50 (Adenosine receptor A1 [3]) [µM] | EC50 (Adenosine A2 receptor [4]) [µM] | inhibition [5] [%] |
| --- | --- | --- | --- | --- | --- |
| CCC(CC)NC(=O)[C@H]1OC(n2cnc3c(NC(CC)CC)ncnc32)[C@H](O)[C@@H]1O (some centres undefined) | 1.4 | > 100 |  |  |  |
| C=CCNC(=O)[C@H]1OC(n2cnc3c(NC(CC)CC)ncnc32)[C@H](O)[C@@H]1O (some centres undefined) | 0.017 | 8.9 |  |  |  |
| CCC(CC)Nc1ncnc2c1ncn2C1O[C@H](C(=O)NC(C)C)[C@@H](O)[C@H]1O (some centres undefined) |  | 5.1 | 0.011 |  |  |
| CCNC(=O)[C@H]1O[C@@H](n2cnc3c(N[C@@H](CC)Cc4ccccc4)ncnc32)[C@H](O)[C@@H]1O | 0.026 |  |  |  |  |
| Nc1ncnc2c1ncn2[C@@H]1O[C@H](C(=O)NC2CC2)[C@@H](O)[C@H]1O |  |  |  | 0.26 |  |
| O=C([C@H]1OC(n2cnc3c(N4CCCCC4)ncnc32)[C@H](O)[C@@H]1O)N1CCCCC1 (some centres undefined) |  | > 100 |  |  | 0 |
| CCC(CC)Nc1ncnc2c1ncn2C1O[C@H](C(=O)NCc2ccccc2)[C@@H](O)[C@H]1O (some centres undefined) | 0.104 | > 100 |  |  |  |
| CCNC(=O)[C@H]1OC(n2cnc3c(NC4CCCCC4)ncnc32)[C@H](O)[C@@H]1O (some centres undefined) |  | 1.83 |  |  |  |
| CNC(=O)[C@H]1O[C@@H](n2cnc3c(N)ncnc32)[C@H](O)[C@@H]1O | 0.105 |  |  | 1.7 |  |
| CCC(CC)Nc1ncnc2c1ncn2C1O[C@H](C(=O)NC)[C@@H](O)[C@H]1O (some centres undefined) | 0.02 | 6.4 |  |  |  |
| CCCCN(C)C(=O)[C@H]1OC(n2cnc3c(NC(CC)CC)ncnc32)[C@H](O)[C@@H]1O (some centres undefined) |  | > 100 |  |  |  |

More lines, now with the values ahead:

| IC50 (Adenosine receptor A1 [1]) [µM] | EC50 (Adenosine A2 receptor [2]) [µM] | IC50 (Adenosine receptor A1 [3]) [µM] | EC50 (Adenosine A2 receptor [4]) [µM] | inhibition [5] [%] | Structure (SMILES) |
| --- | --- | --- | --- | --- | --- |
| 10 | > 100 |  | > 100 |  | CCNC(=O)[C@H]1OC(n2cnc3c(N(C)C)ncnc32)[C@H](O)[C@@H]1O (some centres undefined) |
| 1.7 | > 100 |  |  |  | CCC(CC)Nc1ncnc2c1ncn2C1O[C@H](C(=O)N(CC)CC)[C@@H](O)[C@H]1O (some centres undefined) |
| 13 | > 100 |  |  |  | CCC(CC)Nc1ncnc2c1ncn2C1O[C@H](C(=O)N(C)C)[C@@H](O)[C@H]1O (some centres undefined) |
|  | 0.54 | 0.002 |  |  | CCC(CC)Nc1ncnc2c1ncn2C1O[C@H](C(=O)NC2CC2)[C@@H](O)[C@H]1O (some centres undefined) |
| 0.07 | 1.56 |  | 5.7 |  | NC(=O)[C@H]1OC(n2cnc3c(N)ncnc32)[C@H](O)[C@@H]1O (some centres undefined) |
| 0.00052 |  |  |  |  | CCNC(=O)[C@H]1O[C@@H](n2cnc3c(N[C@H](CC)Cc4ccccc4)ncnc32)[C@H](O)[C@@H]1O |
| 0.0024 | 0.98 |  | 3.1 |  | CCNC(=O)[C@H]1O[C@@H](n2cnc3c(N[C@H](C)Cc4ccccc4)ncnc32)[C@H](O)[C@@H]1O |
